Measured values as given in patent US9808003B2, “Herbicidally active 2-(substituted-phenyl)-cyclopentane-1,3-dione compounds and derivatives thereof” (Syngenta Limited, priority 2013, dated 2017).
“And” between values parts separate entries of the source, which are not always exact repeats. Equal entries are not always repeated.

Assays:
Format in all cases: in vivo
Winter Barley “Suzuka” = assay: Test 1B glasshouse assay, post-emergence herbicidal activity against cereal crops; details: for Post-emergence herbicidal activity against cereal crops, percentage phytotoxicity, Winter Barley “Suzuka”: 14 DAA
Summary of the method: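 Technical compound in IF50 with acetone, diluted into 0.5% v/v Adigor, sprayed post-emergence on 14-day glasshouse plants (22/16 °C, 16 h light, 65% humidity), typically at 60, 90 or 120 g/ha, with or without 50 g/ha cloquintocet-mexyl safener. Phytotoxicity scored visually 14 DAA (0–100%), mean of two replicates.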

Lolium perenne (LOLPE) = assay: Test 1A glasshouse assay, post-emergence herbicidal activity; details: Lolium perenne, 312 h, application rate 250 g/ha, 13 days after application, visual (100%=total damage; 0%=no damage), read-out: Post-emergence Herbicidal Activity (% Phytotoxicity) LOLPE
Summary of the method: (§1)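 Test species were sown in pots of standard soil and cultivated for 8 days at 24/16 °C (day/night) with 14 h light and 65% humidity. Plants were next sprayed with the formulated active ingredient (acetone/water 50:50, 0.5% Tween 20). Damage was rated visually as % phytotoxicity 13 days later.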

[1] = test system: Echinochloa crus-galli (ECHCG); assay: as above; details: Echinochloa crus-galli, 312 h, application rate 250 g/ha, 13 days after application, visual (100%=total damage; 0%=no damage), read-out: Post-emergence Herbicidal Activity (% Phytotoxicity) ECHCG
Summary of the method: as §1

Avena fatua (AVEFA) [2] = assay: as above; details: Avena fatua, 312 h, application rate 250 g/ha, 13 days after application, visual (100%=total damage; 0%=no damage), read-out: Post-emergence Herbicidal Activity (% Phytotoxicity) AVEFA
Summary of the method: as §1

[3] = test system: Alopecurus myosuroides (ALOMY); assay: as above; details: Alopecurus myosuroides, 312 h, application rate 250 g/ha, 13 days after application, visual (100%=total damage; 0%=no damage), read-out: Post-emergence Herbicidal Activity (% Phytotoxicity) ALOMY
Summary of the method: as §1

[4] = test system: Lolium multiflorum (LOLMU); assay: Test 1B glasshouse assay, post-emergence herbicidal activity against grassy weeds; details: 14 DAA
Summary of the method: (§2)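 Percent phytotoxicity (0–100%, 1% steps) was scored visually 14 days after spraying, as the mean of duplicates. Plants grown 14 days under glasshouse control received the herbicide post-emergence, typically 60–120 g/ha with or without 50 g/ha cloquintocet-mexyl safener, in spray containing 0.5% v/v Adigor.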

Avena fatua (AVEFA) [5] = assay: as above; details: 14 DAA
Summary of the method: as §2

Setaria viridis (SETVI) = assay: as above; details: 14 DAA
Summary of the method: as §2

[6] = test system: Alopecurus myosuroides (ALOMY); assay: as above; details: 14 DAA
Summary of the method: as §2

Poa annua (POAAN) = assay: as above; details: 14 DAA
Summary of the method: as §2

[7] = 30 g/ha herbicide, 50 g/ha cloquintocet-mexyl
[8] = 45 g/ha herbicide, 50 g/ha cloquintocet-mexyl
[9] = 60 g/ha herbicide, 0 g/ha cloquintocet-mexyl
[10] = 60 g/ha herbicide, 50 g/ha cloquintocet-mexyl
[11] = herbicide 30 g/ha, cloquintocet-mexyl 50 g/ha
[12] = herbicide 60 g/ha, cloquintocet-mexyl 0 g/ha
[13] = herbicide 60 g/ha, cloquintocet-mexyl 50 g/ha

Row | SMILES | Percentage Phytotoxicity Winter Barley “Suzuka” (Winter Barley “Suzuka”; [11]) [%] | Percentage Phytotoxicity Winter Barley “Suzuka” (Winter Barley “Suzuka”; [12]) [%] | Percentage Phytotoxicity Winter Barley “Suzuka” (Winter Barley “Suzuka”; [13]) [%] | pest or weed control at 250 g/ha (Lolium perenne (LOLPE)) [%] | pest or weed control at 250 g/ha [1] [%] | pest or weed control at 250 g/ha (Avena fatua (AVEFA) [2]) [%] | pest or weed control at 250 g/ha [3] [%] | Post-emergence herbicidal activity, percentage phytotoxicity, LOLMU [4, 7] | Post-emergence herbicidal activity, percentage phytotoxicity, LOLMU [4, 8] [%] | Post-emergence herbicidal activity, percentage phytotoxicity, LOLMU [4, 9] [%] | Post-emergence herbicidal activity, percentage phytotoxicity, LOLMU [4, 10] | Post-emergence herbicidal activity, percentage phytotoxicity, AVEFA (Avena fatua (AVEFA) [5]; [7]) | Post-emergence herbicidal activity, percentage phytotoxicity, AVEFA (Avena fatua (AVEFA) [5]; [8]) [%] | Post-emergence herbicidal activity, percentage phytotoxicity, AVEFA (Avena fatua (AVEFA) [5]; [9]) | Post-emergence herbicidal activity, percentage phytotoxicity, AVEFA (Avena fatua (AVEFA) [5]; [10]) | Post-emergence herbicidal activity, percentage phytotoxicity, SETVI (Setaria viridis (SETVI); [7]) | Post-emergence herbicidal activity, percentage phytotoxicity, SETVI (Setaria viridis (SETVI); [8]) [%] | Post-emergence herbicidal activity, percentage phytotoxicity, SETVI (Setaria viridis (SETVI); [9]) | Post-emergence herbicidal activity, percentage phytotoxicity, SETVI (Setaria viridis (SETVI); [10]) [%] | Post-emergence herbicidal activity, percentage phytotoxicity, ALOMY [6, 7] | further results
1 | Cc1cc(C)c(C2C(=O)CC(CCNC(=O)c3cccc(F)n3)C2=O)c(C)c1 (racemic) [Compound A89] | 8 | 90 | 25 | 100 | 100 | 100 | 100 | 90% and 93% | 99 | 100 | 100% and 95% | 83% and 85% | 85 | 90% and 97% | 90% and 93% | 100% and 95% | 100 | 100% and 99% | 100 | 88% and 80% | Post-emergence herbicidal activity against cereal crops, percentage phytotoxicity, Winter Barley “Suzuka” (Winter Barley “Suzuka”; [7]): 8%; Post-emergence herbicidal activity against cereal crops, percentage phytotoxicity, Winter Barley “Suzuka” (Winter Barley “Suzuka”; [8]): 20%; Post-emergence herbicidal activity against cereal crops, percentage phytotoxicity, Winter Barley “Suzuka” (Winter Barley “Suzuka”; [9]): 95%; Post-emergence herbicidal activity against cereal crops, percentage phytotoxicity, Winter Barley “Suzuka” (Winter Barley “Suzuka”; [10]): 73%; Post-emergence herbicidal activity, percentage phytotoxicity, ALOMY [6, 8]: 97%; Post-emergence herbicidal activity, percentage phytotoxicity, ALOMY [6, 9]: 98% and 99%; Post-emergence herbicidal activity, percentage phytotoxicity, ALOMY [6, 10]: 98%; Post-emergence herbicidal activity, percentage phytotoxicity, POAAN (Poa annua (POAAN); [7]): 0%; Post-emergence herbicidal activity, percentage phytotoxicity, POAAN (Poa annua (POAAN); [8]): 3%; Post-emergence herbicidal activity, percentage phytotoxicity, POAAN (Poa annua (POAAN); [9]): 25% and 15%
2 | Cc1cc(C)c(C2C(=O)CC(CCNC(=O)c3ccc(Br)cn3)C2=O)c(C)c1 (racemic) [Compound A120, 5-bromo-N-{2-[2,4-dioxo-3-(2,4,6-trimethylphenyl)cyclopentyl]ethyl}pyridine-2-carboxamide] | 15 | 88 | 40 | 100 | 100 | 90 | 100 | 98% | 99 | 100 | 99% | 75% | 78 | 85% | 78% | 100% | 100 | 100% | 100 | 75% | Percentage Phytotoxicity Winter Barley “Suzuka” (Winter Barley “Suzuka”; herbicide 45 g/ha, cloquintocet-mexyl 50 g/ha): 40%; Post-emergence herbicidal activity, percentage phytotoxicity, ALOMY [6, 8]: 80%; Post-emergence herbicidal activity, percentage phytotoxicity, ALOMY [6, 9]: 85%; Post-emergence herbicidal activity, percentage phytotoxicity, ALOMY [6, 10]: 80%; Post-emergence herbicidal activity, percentage phytotoxicity, POAAN (Poa annua (POAAN); [7]): 3%; Post-emergence herbicidal activity, percentage phytotoxicity, POAAN (Poa annua (POAAN); [8]): 3%; Post-emergence herbicidal activity, percentage phytotoxicity, POAAN (Poa annua (POAAN); [9]): 10%; Post-emergence herbicidal activity, percentage phytotoxicity, POAAN (Poa annua (POAAN); [10]): 3%
